Experimental data from patent US12052991B2, “Substituted pyridinyloxybenzenes and salts thereof and use thereof as herbicidal agents” (Bayer Aktiengesellschaft, priority 2018, dated 2024).

How the values were obtained:
Assay type in all cases: in vivo
Lolium rigidum (LOLRI) [1] = experiment: Herbicidal post-emergence action (Table B2); conditions: 1280 g/ha; rated visually after about 3 weeks; 100% = plants have died, 0% = like control plants
Description: (§1) Seeds of mono- and dicotyledonous weed plants were placed in plastic pots in sandy loam soil (doubly sown with in each case one species of mono- or dicotyledonous weed plants per pot), covered with soil and cultivated in a greenhouse under controlled growth conditions. 2 to 3 weeks after sowing, the test plants were treated at the one-leaf stage. The compounds of the invention, formulated in the form of wettable powders (WP) or as emulsion concentrates (EC), were applied onto the green parts of the plants as aqueous suspension or emulsion with addition of 0.5% additive at a water application rate of 600 liters per hectare (converted). After the test plants had been kept in the greenhouse under optimum growth conditions for about 3 weeks, the activity of the preparations was rated visually in comparison to untreated controls. For example, 100% activity=the plants have died, 0% activity=like control plants. Tables B1 to B12 below show the effects of selected compounds of the general formula (I) according to Table 1 on various harmful plants and an application rate corresponding to 1280 or 320 g/ha, which were obtained by the experimental procedure mentioned above.

Setaria viridis (SETVI) [2] = experiment: Herbicidal post-emergence action (Table B4); conditions: 1280 g/ha; rated visually after about 3 weeks; 100% = plants have died, 0% = like control plants
Description: as §1

[3] = tested on: Abutilon theophrasti (ABUTH); experiment: Herbicidal post-emergence action (Table B5); conditions: rated visually after about 3 weeks, 100% = plants have died, 0% = like control plants
Outline: (§2)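 Post-emergence spray, one-leaf stage (2–3 wk after sowing), sandy loam, greenhouse. WP/EC in water + 0.5% additive, 600 L/ha, 1280 or 320 g/ha. Visual % activity vs untreated after ~3 wk (0% = like control, 100% = plants dead).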

[4] = tested on: Amaranthus retroflexus (AMARE); experiment: Herbicidal post-emergence action (Table B6); conditions: visual rating about 3 weeks after treatment, 100% = plants have died, 0% = like control plants
Outline: as §2

Stellaria media (STEME) [5] = experiment: Herbicidal post-emergence action (Table B8); conditions: visual rating about 3 weeks after treatment, 100% = plants have died, 0% = like control plants
Outline: as §2

[6] = tested on: Alopecurus myosuroides (ALOMY); experiment: Herbicidal post-emergence action (Table B9); conditions: rated visually after about 3 weeks, 100% = plants have died, 0% = like control plants
Outline: as §2

[7] = tested on: Digitaria sanguinalis (DIGSA); experiment: Herbicidal post-emergence action (Table B10); conditions: visual rating about 3 weeks after treatment, 100% = plants have died, 0% = like control plants
Outline: as §2

Bassia scoparia (KCHSC) [8] = experiment: Herbicidal post-emergence action (Table B11); conditions: visual rating about 3 weeks after treatment, 100% = plants have died, 0% = like control plants
Outline: as §2

Veronica persica (VERPE) [9] = experiment: Herbicidal post-emergence action (Table B12); conditions: visual rating about 3 weeks after treatment, 100% = plants have died, 0% = like control plants
Outline: as §2

[10] = tested on: Echinochloa crus-galli (ECHCG); experiment: Herbicidal pre-emergence action, test C (Table C1); conditions: visual scoring after about 3 weeks, 100% = plants have died, 0% = like control plants
Outline: (§3)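 Visual scoring after about 3 weeks in the greenhouse gave % activity relative to untreated controls, 100% meaning plants died. Compounds, as WP or EC with 0.5% additive, had been applied to covering soil at 1280 or 320 g/ha in 600 L/ha water.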

Lolium rigidum (LOLRI) [11] = experiment: Herbicidal pre-emergence action, test C (Table C2); conditions: dosage 1280 g/ha; visual scoring after about 3 weeks; 100% = plants have died, 0% = like control plants
Text: (§4) Seeds of mono- and dicotyledonous weed plants were placed in plastic pots in sandy loam soil (doubly sown with one species each of mono- or dicotyledonous weed plants per pot) and covered with soil. The compounds of the invention, formulated in the form of wettable powders (WP) or as emulsion concentrates (EC), were then applied onto the surface of the covering soil as aqueous suspension or emulsion with addition of 0.5% additive at a water application rate of 600 liters per hectare (converted). After the treatment, the pots were placed in a greenhouse and kept under good growth conditions for the test plants. After about 3 weeks, the effect of the preparations was scored visually in comparison with untreated controls as percentages. For example, 100% activity=the plants have died, 0% activity=like control plants. Tables C1 to C12 below show the effects of selected compounds of the general formula (I) according to Table 1 on various harmful plants and an application rate corresponding to 1280 or 320 g/ha, which were obtained by the experimental procedure mentioned above.

Poa annua (POAAN) = experiment: Herbicidal pre-emergence action, test C (Table C3); conditions: visual scoring after about 3 weeks, 100% = plants have died, 0% = like control plants
Outline: as §3

Setaria viridis (SETVI) [12] = experiment: Herbicidal pre-emergence action, test C (Table C4); conditions: visual scoring after about 3 weeks, 100% = plants have died, 0% = like control plants
Outline: as §3

[13] = tested on: Abutilon theophrasti (ABUTH); experiment: Herbicidal pre-emergence action, test C (Table C5); conditions: visual scoring after about 3 weeks, 100% = plants have died, 0% = like control plants
Outline: as §3

[14] = tested on: Amaranthus retroflexus (AMARE); experiment: Herbicidal pre-emergence action, test C (Table C6); conditions: visual scoring after about 3 weeks, 100% = plants have died, 0% = like control plants
Outline: as §3

[15] = tested on: Matricaria inodora (MATIN); experiment: Herbicidal pre-emergence action, test C (Table C7); conditions: visual scoring after about 3 weeks, 100% = plants have died, 0% = like control plants
Outline: as §3

Stellaria media (STEME) [16] = experiment: Herbicidal pre-emergence action, test C (Table C8); conditions: visual scoring after about 3 weeks, 100% = plants have died, 0% = like control plants
Outline: as §3

[17] = tested on: Alopecurus myosuroides (ALOMY); experiment: Herbicidal pre-emergence action, test C (Table C9); conditions: visual scoring after about 3 weeks, 100% = plants have died, 0% = like control plants
Outline: as §3

[18] = tested on: Digitaria sanguinalis (DIGSA); experiment: Herbicidal pre-emergence action, test C (Table C10); conditions: visual scoring after about 3 weeks, 100% = plants have died, 0% = like control plants
Outline: as §3

Bassia scoparia (KCHSC) [19] = experiment: Herbicidal pre-emergence action, test C (Table C11); conditions: visual scoring vs untreated controls
Text: as §4

Veronica persica (VERPE) [20] = experiment: Herbicidal pre-emergence action, test C (Table C12); conditions: visual scoring vs untreated controls
Outline: as §3

[21] = tested on: harmful plants ABUTH, AMARE, ECHCG, LOLRI, MATIN, POAAN, SETVI, STEME, ALOMY, DIGSA, KCHSC and VERPE; experiment: Herbicidal post-emergence action, summary of Tables B1-B12; conditions: application rate of 1280 or 320 g of active ingredient per hectare; summary in words
Outline: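 Activity scored by eye roughly 3 weeks post-treatment against untreated plants, from 0% (no effect) to 100% (plants dead). Application rates were 1280 or 320 g/ha, as aqueous WP/EC spray plus 0.5% additive at 600 L/ha, onto one-leaf-stage weeds grown 2–3 weeks in sandy loam.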

[22] = tested on: harmful plants ABUTH, AMARE, ECHCG, LOLRI, MATIN, POAAN, SETVI, STEME, ALOMY, DIGSA, KCHSC and VERPE; experiment: Herbicidal pre-emergence action (test C), summary of Tables C1-C12; conditions: application rate of 1280 or 320 g of active ingredient per hectare; summary in words
Outline: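 Visual % damage versus untreated plants (0% = like control, 100% = died) was scored after about 3 weeks in the greenhouse. Before emergence, seeds sown in sandy loam got a soil-surface spray of compound as WP or EC plus 0.5% additive, using 600 L/ha water at rates of 1280 or 320 g/ha.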

## Fc1cc(Cl)cnc1Oc1ccccc1-c1cncc(C(F)(F)F)c1 [Example 1-72]
Lolium rigidum (LOLRI) [1]
  Post-emergence action against Lolium rigidum (LOLRI): 100%
Setaria viridis (SETVI) [2]
  Post-emergence action against Setaria viridis (SETVI): 90%
[3]; 320 g/ha
  Post-emergence action against Abutilon theophrasti (ABUTH): 100%
[3]; 1280 g/ha
  Post-emergence action against Abutilon theophrasti (ABUTH): 100%
[4]; dosage 320 g/ha
  Post-emergence action against Amaranthus retroflexus (AMARE): 100%
[4]; dosage 1280 g/ha
  Post-emergence action against Amaranthus retroflexus (AMARE): 100%
Stellaria media (STEME) [5]; dosage 320 g/ha
  Post-emergence action against Stellaria media (STEME): 100%
Stellaria media (STEME) [5]; dosage 1280 g/ha
  Post-emergence action against Stellaria media (STEME): 100%
[6]; 320 g/ha
  Post-emergence action against Alopecurus myosuroides (ALOMY): 100%
[6]; 1280 g/ha
  Post-emergence action against Alopecurus myosuroides (ALOMY): 100%
[7]; dosage 320 g/ha
  Post-emergence action against Digitaria sanguinalis (DIGSA): 90%
[7]; dosage 1280 g/ha
  Post-emergence action against Digitaria sanguinalis (DIGSA): 100%
Bassia scoparia (KCHSC) [8]; dosage 320 g/ha
  Post-emergence action against Bassia scoparia (KCHSC): 100%
Bassia scoparia (KCHSC) [8]; dosage 1280 g/ha
  Post-emergence action against Bassia scoparia (KCHSC): 100%
Veronica persica (VERPE) [9]; dosage 320 g/ha
  Post-emergence action against Veronica persica (VERPE): 100%
Veronica persica (VERPE) [9]; dosage 1280 g/ha
  Post-emergence action against Veronica persica (VERPE): 100%
[10]; dosage 320 g/ha
  Pre-emergence action against Echinochloa crus-galli (ECHCG): 100%
[10]; dosage 1280 g/ha
  Pre-emergence action against Echinochloa crus-galli (ECHCG): 100%
Lolium rigidum (LOLRI) [11]
  Pre-emergence action against Lolium rigidum (LOLRI): 100%
Poa annua (POAAN); dosage 320 g/ha
  Pre-emergence action against Poa annua (POAAN): 100%
Poa annua (POAAN); dosage 1280 g/ha
  Pre-emergence action against Poa annua (POAAN): 100%
Setaria viridis (SETVI) [12]; dosage 320 g/ha
  Pre-emergence action against Setaria viridis (SETVI): 100%
Setaria viridis (SETVI) [12]; dosage 1280 g/ha
  Pre-emergence action against Setaria viridis (SETVI): 100%
[13]; dosage 320 g/ha
  Pre-emergence action against Abutilon theophrasti (ABUTH): 100%
[13]; dosage 1280 g/ha
  Pre-emergence action against Abutilon theophrasti (ABUTH): 100%
[14]; dosage 320 g/ha
  Pre-emergence action against Amaranthus retroflexus (AMARE): 100%
[14]; dosage 1280 g/ha
  Pre-emergence action against Amaranthus retroflexus (AMARE): 100%
[15]; dosage 320 g/ha
  Pre-emergence action against Matricaria inodora (MATIN): 90%
[15]; dosage 1280 g/ha
  Pre-emergence action against Matricaria inodora (MATIN): 100%
Stellaria media (STEME) [16]; dosage 320 g/ha
  Pre-emergence action against Stellaria media (STEME): 90%
Stellaria media (STEME) [16]; dosage 1280 g/ha
  Pre-emergence action against Stellaria media (STEME): 100%
[17]; dosage 320 g/ha
  Pre-emergence action against Alopecurus myosuroides (ALOMY): 100%
[17]; dosage 1280 g/ha
  Pre-emergence action against Alopecurus myosuroides (ALOMY): 100%
[18]; dosage 320 g/ha
  Pre-emergence action against Digitaria sanguinalis (DIGSA): 100%
[18]; dosage 1280 g/ha
  Pre-emergence action against Digitaria sanguinalis (DIGSA): 100%
Bassia scoparia (KCHSC) [19]; dosage 320 g/ha
  Pre-emergence action against Bassia scoparia (KCHSC): 100%
Bassia scoparia (KCHSC) [19]; dosage 1280 g/ha
  Pre-emergence action against Bassia scoparia (KCHSC): 100%
Veronica persica (VERPE) [20]; dosage 320 g/ha
  Pre-emergence action against Veronica persica (VERPE): 100%
Veronica persica (VERPE) [20]; dosage 1280 g/ha
  Pre-emergence action against Veronica persica (VERPE): 100%
[21]
  herbicidal activity against the harmful plants of Tables B1-B12 in post-emergence treatment: very good herbicidal activity
[22]
  herbicidal activity against the harmful plants of Tables C1-C12 in pre-emergence treatment: very good herbicidal activity
